Data set [1] addresses T1, human DBP (vitamin D binding protein) (Homo sapiens, UniProt P02774).
T1 sequence (P02774 17-474): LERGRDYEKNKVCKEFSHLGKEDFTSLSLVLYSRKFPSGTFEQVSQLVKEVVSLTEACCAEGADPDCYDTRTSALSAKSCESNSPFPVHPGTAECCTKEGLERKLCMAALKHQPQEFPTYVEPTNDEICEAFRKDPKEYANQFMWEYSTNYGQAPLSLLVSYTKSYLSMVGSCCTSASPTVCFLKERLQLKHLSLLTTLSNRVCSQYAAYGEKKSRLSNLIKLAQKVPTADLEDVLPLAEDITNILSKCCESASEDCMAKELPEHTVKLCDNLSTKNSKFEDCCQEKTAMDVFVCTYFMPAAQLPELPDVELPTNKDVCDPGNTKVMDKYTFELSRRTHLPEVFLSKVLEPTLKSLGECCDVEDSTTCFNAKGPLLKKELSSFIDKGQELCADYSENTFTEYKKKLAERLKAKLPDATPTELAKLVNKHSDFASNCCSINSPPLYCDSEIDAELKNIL
Put plainly: Relative affinity for purified human vitamin D-binding protein (hDBP). Particulars: % of the activity of 1α,25-(OH)2D3 at 50% of its activity (B50).

The subject of data set [2] is HL-60 cells. Put plainly: HL-60 cell differentiation (NBT reduction). The format is cell-based. The following applies: % of the activity of 1α,25-(OH)2D3 at 50% of its activity (B50); human leukemia cells. Here is the method: (§1) HL-60 cells were seeded at 1.2×10^5 cells/ml and 1α,25-(OH)2D3 or its anologs were added in ethanol (final concentration <0.2%) in RPMI 1640 medium supplemented with 10% heat-inactivated fetal calf serum (FCS) for 4 d at 37° C. Cells were then assayed for maturation by NBT reduction assay as described (22) using a hemacytometer, or for proliferation by cell counting and [^3H] thymidine incorporation. MG 63 cells, seeded at 5×10^3 cells/ml in 96 well flat bottomed culture plates (Falcon, Becton Dickinson, N.J.) in a volume of 0.2 ml of DMEM and 2% FCS, were incubated with 1α,25-(OH)2D3 or its analogues for 72 h. Osteocalcin was then measured in the culture medium using a homologous human osteocalcin RIA (39). Breast carcinoma cells (MCF-7 or GR) were grown in DMEM/nut.mix F-12 (HAM) medium supplemented with 10% FCS. Cells (5000/Well) were incubated during 24 h in 96 well tissue culture plates (Falcon 3072) followed by a 72 h incubation with/without 1α,25-(OH)2D3 or analogues. The cells were then incubated with [^3H]thymidine (1 μCi/well) for 4 h and harvested thereafter in NaOH (0.1 M) and the radioactivity counted. The protein content of the cells was measured by the Pierce BCA protein assay (Rockford, Ill.).

Data set [3] deals with MG-63 cells. Put plainly: MG-63 osteosarcoma cells, osteocalcin secretion. The format is cell-based. Particulars: % of the activity of 1α,25-(OH)2D3 at 50% of its activity (B50); human osteosarcoma cells. The method, then: as §1
The subject of data set [4] is MCF-7 cells. Put plainly: MCF-7 breast cancer cell proliferation ([3H]thymidine incorporation). The format is cell-based. Particulars: % of the activity of 1α,25-(OH)2D3 at 50% of its activity (B50); human breast cancer cells. Here is the method:
as §1

For data set [5], the system named is human normal keratinocytes. Put plainly: Human keratinocyte proliferation ([3H]thymidine incorporation). The format is cell-based. The following applies: % of the activity of 1α,25-(OH)2D3 at 50% of its activity (B50). Here is the method:
to evaluate the effects on cell proliferation of non-malignant cells and especially to evaluate their potential for use for dermatological disorders, the new compounds were tested in cultures of human normal keratinocytes.
Human skin keratinocytes were isolated and cultured using a modification of the method of Kitano and Okada (38).
Briefly, the skin from biopsies of patients with breast tumors, was cutted into pieces measuring 3-5 mm and soaked overnight at 4° C. in a solution of dispase (20 Boehringer units/ml). The epidermis was peeled from the dermis, washed with calcium- and magnesium-free phosphate buffered saline and incubated and shaked in a 0.25% trypsin solution for 10 min at room temperature. The reaction was then stopped by addition of PBS containing 10% FCS. The cells were collected after centrifugation at 4° C. for 10 min at 800 rpm. After an additional washing with PBS, the pellet was suspended in culture medium into 25 cm^2 primaria flasks from Becton Dickinson. The keratinocytes were cultivated at 37° C. in an atmosphere of 5% CO2 in air. A few hours later, the medium was replaced by new one. The medium [Keratinocyte Medium from Gibco containing Epidermal Growth Factor (5 ng/ml), Bovine Pituitary Extract (35-50 μg/ml) and antibiotics] was renewed every other day until confluency.
Keratinocytes were cultured in 96-well plate and, after 24 hours, were treated with various concentrations of vitamin D analogues, followed by pulse labelling with 1 μCi of [^3H]thymidine for 3 hours. Cultures were washed 3 times with PBS and twice with 10% (v/v) ice cold trichloroacetic acid. Cells were solubilized with 1 M NaOH and radioactivity was counted in a scintillation counter.

Data set [6] concerns vitamin D-deficient chicks. Put plainly: Calcemic effect in vitamin D-deficient chicks (serum calcium). The format is in vivo, chick. The following applies: % of the activity of 1α,25-(OH)2D3 at 50% of its activity (B50); vitamin D-deficient chicks injected 10 consecutive days. The method, then: The antirachitic activity of the analogues was tested in 3 weeks old vitamin D-deficient chicks injected for 10 consecutive days with 1α,25-(OH)2D3 or its analogues (22,23). Serum calcium (by atomic absorptiometry) and osteocalcin (by specific RIA), duodenal calbindin D-28K (by RIA) and bone calcium content were measured. The hypercalcemic effect of the most interesting anologues was also tested in vitamin D-replete normal NMRI mice by daily sc injection of 1α,25-(OH)2D3, its analogues or the solvent for 7 consecutive days, using serum, bone and urinary calcium excretion and serum osteocalcin (by specific mouse RIA) as parameters (40).

The target in data set [7] is T2, vitamin D receptor (Sus scrofa, UniProt A3RGC1).
T2 sequence (A3RGC1 1-427): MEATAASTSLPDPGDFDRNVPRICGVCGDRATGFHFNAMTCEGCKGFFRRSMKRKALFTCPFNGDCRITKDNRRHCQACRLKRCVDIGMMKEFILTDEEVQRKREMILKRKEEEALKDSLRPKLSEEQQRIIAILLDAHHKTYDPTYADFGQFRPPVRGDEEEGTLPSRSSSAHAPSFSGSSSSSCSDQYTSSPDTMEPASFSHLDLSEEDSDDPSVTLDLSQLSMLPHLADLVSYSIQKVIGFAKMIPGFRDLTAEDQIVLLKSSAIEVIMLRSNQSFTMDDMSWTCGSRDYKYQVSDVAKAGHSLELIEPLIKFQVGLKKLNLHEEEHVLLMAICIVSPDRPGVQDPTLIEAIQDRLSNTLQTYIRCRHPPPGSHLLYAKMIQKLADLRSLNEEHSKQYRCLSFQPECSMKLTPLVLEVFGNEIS
Particulars: % of the activity of 1α,25-(OH)2D3 at 50% of its activity (B50); 1α,25-(OH)2D3 assigned 100%.

The subject of data set [8] is spontaneously diabetic NOD mice. Put plainly: Prevention of autoimmune disease recurrence after syngeneic islet transplantation in diabetic NOD mice. The following applies: Nr 46 10 μg/kg/2d. The format is in vivo. The text has this:
To evaluate the immune potential of the analogues the well known model of prevention of autoimmune disease recurrence in the spontaneously diabetic NOD mice was used. When syngeneic NOD islets are transplanted under the kidney capsule of spontaneously diabetic NOD mice, diabetes is only cured for some days, since in the absence of immunomodulatory treatment, the newly transplanted islets are destroyed within 14 days.

This is an account of results in patent US6548715B1, “Structural analogues of vitamin D” (Laboratoire Theramex S.A., priority 1993, dated 2003).

On to `C=C1/C(=C\C=C2/CCC[C@](C)([C@H](C)[C@H](C)CC[C@@H](O)C(C)C)C2)C[C@@H](O)C[C@@H]1O` [Compound 5], for which, in data set [1], the “Affinity for human DBP” value amounted to 10%. Further, the “Cell differentation/cell proliferation HL-60” value in data set [2] turned out to be 4000%. In addition, the “Cell differentation/cell proliferation MG-63” value in data set [3] is reported as 1000%. The “Cell differentation/cell proliferation MCF-7” value in data set [4] is given as 6000%. In addition, the “Cell differentation/cell proliferation keratinocytes” value in data set [5] was determined as 5000%. The Ca serum chick in data set [6] was 9%. Further, the “Affinity for pig receptor” value in data set [7] was 80%.

Turning to `C=C1C(=CC=CCC2(C)CCC(CCCC(C)(C)O)C2(C)C)CC(O)CC1O` (stereo not drawn) [Compound 11], the “Affinity for human DBP” value in data set [1] is 19%. In data set [2], the “Cell differentation/cell proliferation HL-60” value is 30%. In addition, the “Cell differentation/cell proliferation MG-63” value in data set [3] was determined as 35%. Further, the “Cell differentation/cell proliferation MCF-7” value in data set [4] amounted to 30%. Moreover, in data set [5], the “Cell differentation/cell proliferation keratinocytes” value is listed as 10%. In data set [6], the Ca serum chick was <0.1%. In addition, the “Affinity for pig receptor” value in data set [7] came out at 8%.

`C=C1C(=CC=CCC2(C)CCC(CCCC(O)(CC)CC)C2(C)C)CC(O)CC1O` (stereo not drawn) [Compound 12]: the “Affinity for human DBP” value in data set [1] worked out at 5%. In addition, the “Cell differentation/cell proliferation HL-60” value in data set [2] came to 250%. The “Cell differentation/cell proliferation MG-63” value in data set [3] came to 135%. Further, the “Cell differentation/cell proliferation MCF-7” value in data set [4] was 80%. The “Cell differentation/cell proliferation keratinocytes” value in data set [5] was determined as 100%. For the same molecule, the Ca serum chick in data set [6] is recorded as <0.1%. Besides, the “Affinity for pig receptor” value in data set [7] was 45%.

As to `CC(CCCC(C)(C)O)C1CCC2C(=CC=C3CC(O)CC(O)C3)CCCC21C` (stereo not drawn) [Compound 43], the “Affinity for human DBP” value in data set [1] is given as 7%. Moreover, the “Cell differentation/cell proliferation HL-60” value in data set [2] came out at 40%. Besides, the “Cell differentation/cell proliferation MG-63” value in data set [3] was 100%. Further, the “Cell differentation/cell proliferation MCF-7” value in data set [4] was 20%. Moreover, the “Cell differentation/cell proliferation keratinocytes” value in data set [5] turned out to be 100%. For the same molecule, the Ca serum chick in data set [6] is 0.1%. Also, the “Affinity for pig receptor” value in data set [7] is listed as 25%.

As for `CC(CC#CC(C)(C)O)C1CCC2C(=CC=C3CC(O)CC(O)C3)CCCC21C` (stereo not drawn) [Compound 44], in data set [1], the “Affinity for human DBP” value was determined as 2%. Besides, the “Cell differentation/cell proliferation HL-60” value in data set [2] worked out at 320%. In addition, the “Cell differentation/cell proliferation MG-63” value in data set [3] was determined as 150%. The “Cell differentation/cell proliferation MCF-7” value in data set [4] is 1000%. In addition, the “Cell differentation/cell proliferation keratinocytes” value in data set [5] is listed as 700%. Further, in data set [6], the Ca serum chick is recorded as 0.1%. The “Affinity for pig receptor” value in data set [7] is reported as 26%.

Regarding `CC(CC#CC(C)(C)O)C1CCC2C(=CC=C3CC(O)CC(O)C3)CCCC21C` (stereo not drawn) [Compound 46], the “Affinity for human DBP” value in data set [1] is given as <0.5%. For the same molecule, in data set [2], the “Cell differentation/cell proliferation HL-60” value is 1650%. In data set [3], the “Cell differentation/cell proliferation MG-63” value is recorded as 500%. Moreover, in data set [4], the “Cell differentation/cell proliferation MCF-7” value is reported as 1950%. Besides, in data set [5], the “Cell differentation/cell proliferation keratinocytes” value amounted to 1000%. Moreover, the Ca serum chick in data set [6] was 2%. Besides, the “Mean survival of islets and range” value in data set [8] is recorded as 19 (6-51) d. Besides, in data set [7], the “Affinity for pig receptor” value worked out at 30%.

As to `CCC(O)(C#CCC(C)C1CCC2C(=CC=C3CC(O)CC(O)C3)CCCC21C)CC` (stereo not drawn) [Compound 48], in data set [1], the “Affinity for human DBP” value was 0.3%. Further, the “Cell differentation/cell proliferation HL-60” value in data set [2] stood at 2200%. Also, the “Cell differentation/cell proliferation MG-63” value in data set [3] is listed as 800%. The “Cell differentation/cell proliferation MCF-7” value in data set [4] is on record as 1500%. Further, the “Cell differentation/cell proliferation keratinocytes” value in data set [5] was found to be 350%. For the same molecule, the Ca serum chick in data set [6] is given as 1%. Further, the “Affinity for pig receptor” value in data set [7] amounted to 40%.

Regarding `CC1=C(/C=C\C2=CCC[C@](C)([C@H](C)[C@H](C)CC[C@@H](O)C(C)C)C2)C[C@@H](O)C[C@@H]1O` [Compound 58], the “Affinity for human DBP” value in data set [1] was determined as 1%. For the same molecule, the “Cell differentation/cell proliferation HL-60” value in data set [2] came out at 650%. In addition, the “Cell differentation/cell proliferation MG-63” value in data set [3] is listed as 115%. Moreover, in data set [4], the “Cell differentation/cell proliferation MCF-7” value is recorded as 700%. For the same molecule, the “Cell differentation/cell proliferation keratinocytes” value in data set [5] came to 1000%. Besides, in data set [6], the Ca serum chick is listed as <1%. The “Affinity for pig receptor” value in data set [7] amounted to 3%.
